Experimental data from patent US20240335429A1, “MOLECULAR GLUE AND SALL4 DEGRADER” (National University of Singapore, priority 2021, published 2024).

Experiments:
[1] = biological target: SALL4A-Nluc in H1299 cells (Homo sapiens, UniProt Q96SW2+Q9UJQ4); conditions: 10 μM, H1299 cells overexpressing SALL4A-nanoluc
Text: (§1) SALL4A or SALL4B was cloned into the dual-luciferase plasmid (pLL3.7-EF1a-IRES-Gateway-nluc-2xHA-IRES2-fluc-hCL1-P2A-Puro from Prof. William G. Kaelin group) to create a stable cell line (H1299, SALL4 negative) that ectopically express the SALL4A or B-NanoLuc fusion protein. SALL4A or B fused to nanoluciferase (Nluc) was expressed in a multicistronic mRNA with control firefly luciferase (Fluc). The measurement of Nluc/Fluc ratio enabled the determination of SALL4 fusion protein degradation relative to the internal Fluc control, independent of effects on transcription (FIG. 1A-B).

[2] = biological target: T1, SALL4B-Nluc in H1299 cells (Homo sapiens, UniProt Q96SW2+Q9UJQ4); assay: Dual-luciferase SALL4B reporter cellular assay (main screen), Nluc/Fluc ratio; type: cell-based; conditions: NCI-H1299, read-out: maximum degradation (Dmax) of SALL4B_Nluc
T1 construct: expressed in transfected cells
Text: as §1
The assay was performed as described in Example 1 except in a 1,536-well plate which allows HTS of thermal shift hits from the primary screen, searching for SALL4 small molecule binders that can degrade the oncogenic SALL4B isoform. H1299 cells that stably express SALL4A/B_Nluc_Fluc were seeded in a 1,536-well clear bottom white plate (Corning) at 2,000 cells per well in RPMI medium (6 μL) and grown overnight (16 h) at 37° C., 5% CO2. Cells were treated with 8 μM of compounds for 6 h. Nano-Glo® Dual-Luciferase® Reporter Assay System and Pherastar plate reader were used for measuring the luciferase signal, following the manufacturer's instruction. For data analysis, the Nanoluc luminescence is normalized to firefly luciferase reading and then compared to the DMSO control. The screen was performed in triplicates.
The inventors treated H1299 cells overexpressing SALL4B_Nluc and the HCC (SNU-398, SNU-182) and NSCLC cells (H661) with increasing concentrations of QE-18-WG07 and IMiDs, and assayed the SALL4B_Nluc, as well as the endogenous SALL4A and B levels by immunoblots described in Example 4.

SNU-398 cells = assay: CellTiter-Glo viability assay, SNU-398; type: cell-based, human; conditions: CellTiter-Glo
Description: Cells were plated in RPMI culture media (40 μL) in 384-well white, flat-bottom plates (Corning) and incubated at 37° C. in a humidified atmosphere of 5% CO2 overnight. The numbers of cells per well were 1,500 for SNU-398 and SNU-182, 750 for SNU-387, SNU-449, SNU-475 and SNU-423, and 1,000 for H661 and H1299. After overnight incubation, 10 μL of drug (1% DMSO in RPMI) at designed concentrations were added to the cells. The cells were then incubated for 16, 24, 48, 72, or 96 h at 37° C. in a humidified atmosphere of 5% CO2 before CellTiter-Glo reagent (10 μL) was dispensed to the wells. The cells were incubated at room temperature for a minimum of 10 min. After that, luminescence readings were recorded by a Microplate Reader (PHERAstar or Tecan Infinite M200 Pro) according to the manufacturer's instruction for measuring the luminescence.

cleaved PARP = assay: Immunoblot of cleaved PARP (apoptotic marker) in SNU-398 cells; type: cell-based, human; conditions: SNU-398 HCC cells, 24 h
Description: (§2) RIPA buffer containing freshly added protease inhibitors (2 mM PMSF) and protease inhibitor cocktail was used for cell lysis. The lysed cells were incubated for 10 min on ice and subsequently centrifuged at 4° C. for 10 min at 14,000 rpm. The protein concentrations of cell lysates were assessed using Bradford Assay as per manufacturer's instructions. The samples were denatured using 4× Sample buffer at 95° C. for 5 min. The samples were size resolved using polyacrylamide gel (8%) and Mini-PROTEAN Tetra Cell module. The size-resolved proteins were transferred onto PVDF via electroblotting using Mini Trans-Blot® module. The membrane was blocked using 5% BSA in TBST. The membrane was incubated with appropriate primary antibody (overnight) and secondary antibody (1 h). Immobilon Crescendo Western HRP substrate was used for signal development and images were acquired using darkroom development techniques.

c-myc = assay: Immunoblot of c-myc (SALL4 downstream target) in SNU-398 cells; type: cell-based, human; conditions: SNU-398 HCC cells, 24 h
Description: as §2

IKZF1 = biological target: T2, IKZF1 (Homo sapiens, UniProt Q13422); assay: Immunoblot of IKZF1 in SNU-398 HCC cells; type: cell-based; conditions: SNU-398 cells
T2 construct: with immunoblots in SNU-398 HCC cells; endogenous in cells; host or cells: SNU-398 HCC cells
Description: as §2

IKZF3 = biological target: T3, IKZF3 (Homo sapiens, UniProt Q9UKT9); assay: Immunoblot of IKZF3 in SNU-398 HCC cells; type: cell-based; conditions: SNU-398 cells
T3 construct: with immunoblots in SNU-398 HCC cells; endogenous in cells; host or cells: SNU-398 HCC cells
Description: as §2

T1 sequence (Q9UJQ4 1-616 isoform Q9UJQ4-2): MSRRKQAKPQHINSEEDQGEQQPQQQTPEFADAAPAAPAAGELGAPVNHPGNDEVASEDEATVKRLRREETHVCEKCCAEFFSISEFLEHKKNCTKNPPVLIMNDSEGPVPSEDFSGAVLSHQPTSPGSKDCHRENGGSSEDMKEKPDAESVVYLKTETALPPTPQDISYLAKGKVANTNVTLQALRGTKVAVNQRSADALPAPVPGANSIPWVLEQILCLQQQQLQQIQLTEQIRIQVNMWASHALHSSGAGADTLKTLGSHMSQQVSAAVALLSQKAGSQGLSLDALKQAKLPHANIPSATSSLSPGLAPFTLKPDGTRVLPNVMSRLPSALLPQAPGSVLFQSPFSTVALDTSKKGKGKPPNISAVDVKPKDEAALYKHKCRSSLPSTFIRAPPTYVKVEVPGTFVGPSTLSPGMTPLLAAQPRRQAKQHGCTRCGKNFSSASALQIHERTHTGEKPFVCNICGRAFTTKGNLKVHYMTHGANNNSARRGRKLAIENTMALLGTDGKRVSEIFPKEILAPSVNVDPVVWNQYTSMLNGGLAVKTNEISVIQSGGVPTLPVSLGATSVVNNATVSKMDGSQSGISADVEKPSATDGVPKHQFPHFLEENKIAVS
T1 sequence (Q96SW2 whole entry): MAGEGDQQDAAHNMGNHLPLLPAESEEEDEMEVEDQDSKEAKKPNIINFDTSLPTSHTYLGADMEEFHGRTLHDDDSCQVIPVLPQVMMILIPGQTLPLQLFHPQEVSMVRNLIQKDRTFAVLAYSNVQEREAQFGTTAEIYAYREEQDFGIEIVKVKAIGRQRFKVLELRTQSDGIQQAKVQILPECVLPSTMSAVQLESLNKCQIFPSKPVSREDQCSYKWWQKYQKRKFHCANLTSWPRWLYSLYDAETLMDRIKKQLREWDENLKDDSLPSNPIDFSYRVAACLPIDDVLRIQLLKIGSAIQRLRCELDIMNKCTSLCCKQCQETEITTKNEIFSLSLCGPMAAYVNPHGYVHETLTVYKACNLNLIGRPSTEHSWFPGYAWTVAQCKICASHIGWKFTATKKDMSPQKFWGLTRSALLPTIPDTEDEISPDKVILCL
T1 sequence (Q16531 whole entry partner): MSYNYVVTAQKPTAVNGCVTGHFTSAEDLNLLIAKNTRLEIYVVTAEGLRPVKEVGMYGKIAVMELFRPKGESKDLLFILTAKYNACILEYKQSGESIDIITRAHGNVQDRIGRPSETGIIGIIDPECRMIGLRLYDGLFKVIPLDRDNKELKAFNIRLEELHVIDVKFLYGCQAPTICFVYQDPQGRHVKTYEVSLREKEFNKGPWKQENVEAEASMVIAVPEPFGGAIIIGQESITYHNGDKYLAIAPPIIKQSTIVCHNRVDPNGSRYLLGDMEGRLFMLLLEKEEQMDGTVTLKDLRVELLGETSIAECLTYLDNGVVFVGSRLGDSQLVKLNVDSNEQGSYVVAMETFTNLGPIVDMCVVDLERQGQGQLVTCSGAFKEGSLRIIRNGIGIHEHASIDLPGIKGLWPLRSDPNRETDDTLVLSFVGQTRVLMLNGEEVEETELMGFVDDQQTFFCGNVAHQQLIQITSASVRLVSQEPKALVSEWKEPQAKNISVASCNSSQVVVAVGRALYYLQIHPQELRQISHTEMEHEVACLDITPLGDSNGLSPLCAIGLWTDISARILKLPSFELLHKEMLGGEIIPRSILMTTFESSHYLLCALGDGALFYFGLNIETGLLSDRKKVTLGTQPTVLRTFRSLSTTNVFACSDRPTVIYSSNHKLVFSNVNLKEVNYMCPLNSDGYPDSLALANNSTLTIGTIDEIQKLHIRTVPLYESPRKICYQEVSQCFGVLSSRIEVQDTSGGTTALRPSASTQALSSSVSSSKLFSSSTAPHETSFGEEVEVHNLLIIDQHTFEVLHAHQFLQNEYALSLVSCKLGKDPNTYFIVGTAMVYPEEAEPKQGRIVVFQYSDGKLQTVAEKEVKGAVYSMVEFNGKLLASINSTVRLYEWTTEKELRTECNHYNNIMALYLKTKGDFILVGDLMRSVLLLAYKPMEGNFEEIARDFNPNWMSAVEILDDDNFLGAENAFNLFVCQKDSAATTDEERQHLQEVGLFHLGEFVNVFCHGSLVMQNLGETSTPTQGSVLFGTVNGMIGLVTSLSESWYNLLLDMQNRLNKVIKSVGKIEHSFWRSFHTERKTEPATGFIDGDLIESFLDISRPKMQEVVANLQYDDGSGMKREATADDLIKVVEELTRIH
T2 sequence (Q13422 whole entry): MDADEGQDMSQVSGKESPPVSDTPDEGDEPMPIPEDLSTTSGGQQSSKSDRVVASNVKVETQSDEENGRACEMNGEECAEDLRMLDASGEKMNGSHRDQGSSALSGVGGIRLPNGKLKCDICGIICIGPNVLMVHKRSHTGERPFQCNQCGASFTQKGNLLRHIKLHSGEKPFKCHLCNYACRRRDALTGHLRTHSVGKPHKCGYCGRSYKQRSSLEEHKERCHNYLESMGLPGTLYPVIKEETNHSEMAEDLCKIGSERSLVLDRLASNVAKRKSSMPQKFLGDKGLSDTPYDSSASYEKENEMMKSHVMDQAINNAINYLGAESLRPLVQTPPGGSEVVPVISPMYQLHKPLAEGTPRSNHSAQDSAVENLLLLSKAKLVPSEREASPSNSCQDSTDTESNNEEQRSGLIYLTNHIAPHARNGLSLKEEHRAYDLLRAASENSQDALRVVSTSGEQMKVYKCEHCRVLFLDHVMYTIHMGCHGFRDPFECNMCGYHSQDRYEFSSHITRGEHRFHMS
T3 sequence (Q9UKT9 whole entry): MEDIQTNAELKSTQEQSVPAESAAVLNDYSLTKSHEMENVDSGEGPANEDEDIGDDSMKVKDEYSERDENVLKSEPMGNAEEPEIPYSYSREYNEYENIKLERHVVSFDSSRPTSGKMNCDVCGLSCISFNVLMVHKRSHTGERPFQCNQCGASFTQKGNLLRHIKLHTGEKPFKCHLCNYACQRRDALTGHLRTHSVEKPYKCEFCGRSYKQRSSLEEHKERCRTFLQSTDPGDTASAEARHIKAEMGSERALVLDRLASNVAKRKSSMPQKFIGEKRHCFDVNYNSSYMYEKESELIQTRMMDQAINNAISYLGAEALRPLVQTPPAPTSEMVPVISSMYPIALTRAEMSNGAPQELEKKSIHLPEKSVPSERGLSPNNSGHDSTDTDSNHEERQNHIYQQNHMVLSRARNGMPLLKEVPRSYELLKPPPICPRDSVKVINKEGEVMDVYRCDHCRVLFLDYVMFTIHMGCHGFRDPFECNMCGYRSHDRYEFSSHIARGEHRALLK
Chain of SALL4A-Nluc in H1299 cells (Q96SW2 whole entry, the tested form may be a part): as the sequence (Q96SW2 whole entry) above
Chain of SALL4A-Nluc in H1299 cells (Q16531 whole entry, further chain, the tested form may be a part): as the sequence (Q16531 whole entry partner) above
Chain of SALL4A-Nluc in H1299 cells (Q9UJQ4 whole entry, the tested form may be a part): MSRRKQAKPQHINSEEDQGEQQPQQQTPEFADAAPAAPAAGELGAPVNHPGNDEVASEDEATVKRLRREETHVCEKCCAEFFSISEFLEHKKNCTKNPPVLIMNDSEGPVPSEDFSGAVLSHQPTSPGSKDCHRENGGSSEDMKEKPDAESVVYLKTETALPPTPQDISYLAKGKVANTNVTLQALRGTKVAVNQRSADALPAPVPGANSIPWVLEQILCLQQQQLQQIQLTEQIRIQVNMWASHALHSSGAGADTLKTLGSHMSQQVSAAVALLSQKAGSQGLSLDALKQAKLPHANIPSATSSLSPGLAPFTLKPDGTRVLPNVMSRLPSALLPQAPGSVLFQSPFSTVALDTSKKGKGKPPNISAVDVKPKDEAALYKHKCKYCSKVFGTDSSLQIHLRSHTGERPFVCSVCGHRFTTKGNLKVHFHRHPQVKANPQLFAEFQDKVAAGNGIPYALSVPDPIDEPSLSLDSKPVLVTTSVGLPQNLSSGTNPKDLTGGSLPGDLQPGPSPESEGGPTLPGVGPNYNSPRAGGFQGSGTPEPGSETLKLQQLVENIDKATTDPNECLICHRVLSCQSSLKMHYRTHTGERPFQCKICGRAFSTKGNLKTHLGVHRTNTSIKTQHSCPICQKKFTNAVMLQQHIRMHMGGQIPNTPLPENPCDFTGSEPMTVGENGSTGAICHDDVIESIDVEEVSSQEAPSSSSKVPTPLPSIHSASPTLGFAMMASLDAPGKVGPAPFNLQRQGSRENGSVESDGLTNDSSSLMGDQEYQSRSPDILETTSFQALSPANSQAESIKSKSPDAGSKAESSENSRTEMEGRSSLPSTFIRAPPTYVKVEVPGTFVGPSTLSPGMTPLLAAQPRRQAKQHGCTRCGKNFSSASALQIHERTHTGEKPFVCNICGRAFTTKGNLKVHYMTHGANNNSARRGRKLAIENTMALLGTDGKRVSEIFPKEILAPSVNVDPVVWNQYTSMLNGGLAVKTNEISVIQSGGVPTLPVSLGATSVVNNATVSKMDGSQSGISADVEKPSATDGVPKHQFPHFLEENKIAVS

SMILES | time at which inhibition of SALL4A-Nluc signal became saturated [1] | Dmax [2] | effect on SNU-398 cell growth (SNU-398 cells) | cleavage of PARP (apoptosis induction) (cleaved PARP) | effect on the level of c-myc (c-myc) | Dmax (IKZF1) | Dmax (IKZF3)
Nc1cccc2c1C(=O)N(C1CCC(=O)NC1=O)C2=O (stereo not drawn) [Pomalidomide, reference compound] | 8 h | 17% | did not result in any antiproliferative consequences | – | – | – | –
O=C1CCC(N2C(=O)c3ccccc3C2=O)C(=O)N1 (stereo not drawn) [Thalidomide, reference compound] | – | 17% | did not result in any antiproliferative consequences | no cleavage of PARP observed | did not affect | 64% | 39%
